Calls of active or inactive are those of the source.
Assays:
Eleocharis acicularis [1] = assay: Pre-emergence herbicidal activity against Eleocharis acicularis assessed as bleaching of stem/leaf parts; format: functional, organism-based
Pontederia vaginalis [2] = assay: Pre-emergence herbicidal activity against Monochoria vaginalis assessed as bleaching of stem/leaf parts; format: functional, organism-based
Ammannia multiflora [3] = assay: Pre-emergence herbicidal activity against Ammannia multiflora assessed as bleaching of stem/leaf parts; format: functional, organism-based
Echinochloa oryzicola [4] = assay: Post-emergence herbicidal activity against Echinochloa oryzicola assessed as bleaching of stem/leaf parts; format: functional, organism-based; note: test concentration or dose not given here
Lindernia procumbens [5] = assay: Post-emergence herbicidal activity against Lindernia procumbens assessed as bleaching of stem/leaf parts; format: functional, organism-based; note: test concentration or dose not given here
[6] = tested on: Schoenoplectiella juncoides; assay: Pre-emergence herbicidal activity against Schoenoplectiella juncoides at 2000 g a.i/ha measured after 14 days; format: functional, organism-based
Eleocharis acicularis [7] = assay: Post-emergence herbicidal activity against Eleocharis acicularis assessed as bleaching of stem/leaf parts; format: functional, organism-based; note: test concentration or dose not given here
Cyperus difformis [8] = assay: Pre-emergence herbicidal activity against Cyperus difformis assessed as bleaching of stem/leaf parts; format: functional, organism-based
Cyperus difformis [9] = assay: Post-emergence herbicidal activity against Cyperus difformis assessed as bleaching of stem/leaf parts; format: functional, organism-based; note: test concentration or dose not given here
Rotala indica [10] = assay: Pre-emergence herbicidal activity against Rotala indica at 2000 g a.i/ha measured after 14 days; format: functional, organism-based
Elatine triandra [11] = assay: Pre-emergence herbicidal activity against Elatine triandra at 2000 g a.i/ha measured after 14 days; format: functional, organism-based
[12] = tested on: Schoenoplectiella juncoides; assay: Pre-emergence herbicidal activity against Schoenoplectiella juncoides assessed as bleaching of stem/leaf parts; format: functional, organism-based
Lindernia procumbens [13] = assay: Pre-emergence herbicidal activity against Lindernia procumbens at 2000 g a.i/ha measured after 14 days; format: functional, organism-based
Pontederia vaginalis [14] = assay: Pre-emergence herbicidal activity against Monochoria vaginalis at 2000 g a.i/ha measured after 14 days; format: functional, organism-based
[15] = tested on: Schoenoplectiella juncoides; assay: Post-emergence herbicidal activity against Schoenoplectiella juncoides assessed as bleaching of stem/leaf parts; format: functional, organism-based; note: test concentration or dose not given here
Elatine triandra [16] = assay: Pre-emergence herbicidal activity against Elatine triandra assessed as bleaching of stem/leaf parts; format: functional, organism-based
Elatine triandra [17] = assay: Post-emergence herbicidal activity against Elatine triandra assessed as bleaching of stem/leaf parts; format: functional, organism-based; note: test concentration or dose not given here
Ammannia multiflora [18] = assay: Post-emergence herbicidal activity against Ammannia multiflora assessed as bleaching of stem/leaf parts; format: functional, organism-based; note: test concentration or dose not given here
Lindernia procumbens [19] = assay: Pre-emergence herbicidal activity against Lindernia procumbens assessed as bleaching of stem/leaf parts; format: functional, organism-based
Ammannia multiflora [20] = assay: Pre-emergence herbicidal activity against Ammannia multiflora at 2000 g a.i/ha measured after 14 days; format: functional, organism-based
Rotala indica [21] = assay: Pre-emergence herbicidal activity against Rotala indica assessed as bleaching of stem/leaf parts; format: functional, organism-based
Echinochloa oryzicola [22] = assay: Pre-emergence herbicidal activity against Echinochloa oryzicola at 2000 g a.i/ha measured after 14 days; format: functional, organism-based
Oryza sativa = assay: Phytotoxicity against Oryza sativa cv. Koshihikari (rice) at 2000 g a.i/ha measured after 14 days; format: organism-based; details: in vivo, 336 h
Rotala indica [23] = assay: Post-emergence herbicidal activity against Rotala indica assessed as bleaching of stem/leaf parts; format: functional, organism-based; note: test concentration or dose not given here
Cyperus difformis [24] = assay: Pre-emergence herbicidal activity against Cyperus difformis at 2000 g a.i/ha measured after 14 days; format: functional, organism-based
Pontederia vaginalis [25] = assay: Post-emergence herbicidal activity against Monochoria vaginalis assessed as bleaching of stem/leaf parts; format: functional, organism-based; note: test concentration or dose not given here
Eleocharis acicularis [26] = assay: Pre-emergence herbicidal activity against Eleocharis acicularis at 2000 g a.i/ha measured after 14 days; format: functional, organism-based
Echinochloa oryzicola [27] = assay: Pre-emergence herbicidal activity against Echinochloa oryzicola assessed as bleaching of stem/leaf parts; format: functional, organism-based

SMILES | Activity (Eleocharis acicularis [1]) | Activity (Pontederia vaginalis [2]) | Activity (Ammannia multiflora [3]) | Activity (Echinochloa oryzicola [4]) | Activity (Lindernia procumbens [5]) | Activity [6] | Activity (Eleocharis acicularis [7]) | Activity (Cyperus difformis [8]) | Activity (Cyperus difformis [9]) | Activity (Rotala indica [10]) | Activity (Elatine triandra [11]) | Activity [12] | Activity (Lindernia procumbens [13]) | Activity (Pontederia vaginalis [14]) | Activity [15] | Activity (Elatine triandra [16]) | Activity (Elatine triandra [17]) | Activity (Ammannia multiflora [18]) | Activity (Lindernia procumbens [19]) | Activity (Ammannia multiflora [20]) | further results
CCCN(CC)C(=O)c1cn(C)nc1OCc1ccccc1C(F)(F)F | Active | Active | Active | Active | Active | inactive | Active | Active | Active | inactive | inactive | Active | inactive | inactive | Active | Active | Active | Active | Active | inactive | Activity (Rotala indica [21]): Active; Activity (Echinochloa oryzicola [22]): inactive; Activity (Oryza sativa): Non-toxic; Activity (Rotala indica [23]): Active; Activity (Cyperus difformis [24]): inactive; Activity (Pontederia vaginalis [25]): Active; Activity (Eleocharis acicularis [26]): inactive; Activity (Echinochloa oryzicola [27]): Active
CCCN(CC)C(=O)c1cn(C)nc1OCc1cccc(Br)c1 | Active | Active | Active | Active | Active | Active | Active | Active | Active | inactive | inactive | Active | inactive | Active | Active | Active | Active | Active | Active | inactive | Activity (Rotala indica [21]): Active; Activity (Echinochloa oryzicola [22]): Active; Activity (Oryza sativa): Non-toxic; Activity (Rotala indica [23]): Active; Activity (Cyperus difformis [24]): inactive; Activity (Pontederia vaginalis [25]): Active; Activity (Eleocharis acicularis [26]): Active; Activity (Echinochloa oryzicola [27]): Active
CCCN(CC)C(=O)c1cn(C)nc1OCc1ccc(C)cc1 | Active | Active | Active | Active | Active | inactive | Active | Active | Active | inactive | inactive | Active | inactive | inactive | Active | Active | Active | Active | Active | inactive | Activity (Rotala indica [21]): Active; Activity (Echinochloa oryzicola [22]): inactive; Activity (Oryza sativa): Non-toxic; Activity (Rotala indica [23]): Active; Activity (Cyperus difformis [24]): inactive; Activity (Pontederia vaginalis [25]): Active; Activity (Eleocharis acicularis [26]): inactive; Activity (Echinochloa oryzicola [27]): Active
CCCN(CC)C(=O)c1cn(C)nc1OCc1cccc(F)c1 | Active | Active | Active | Active | Active | Active | Active | Active | Active | Active | Active | Active | Active | Active | Active | Active | Active | Active | Active | Active | Activity (Rotala indica [21]): Active; Activity (Echinochloa oryzicola [22]): Active; Activity (Oryza sativa): Non-toxic; Activity (Rotala indica [23]): Active; Activity (Cyperus difformis [24]): Active; Activity (Pontederia vaginalis [25]): Active; Activity (Eleocharis acicularis [26]): Active; Activity (Echinochloa oryzicola [27]): Active
CCCN(CC)C(=O)c1cn(C)nc1OCc1cccc(Cl)c1 | Active | Active | Active | Active | Active | Active | Active | Active | Active | Active | Active | Active | Active | Active | Active | Active | Active | Active | Active | Active | Activity (Rotala indica [21]): Active; Activity (Echinochloa oryzicola [22]): Active; Activity (Oryza sativa): Non-toxic; Activity (Rotala indica [23]): Active; Activity (Cyperus difformis [24]): Active; Activity (Pontederia vaginalis [25]): Active; Activity (Eleocharis acicularis [26]): Active; Activity (Echinochloa oryzicola [27]): Active
CCCN(CC)C(=O)c1cn(C)nc1OCc1cccc(C(F)(F)F)c1 | Active | Active | Active | Active | Active | Active | Active | Active | Active | inactive | inactive | Active | inactive | Active | Active | Active | Active | Active | Active | inactive | Activity (Rotala indica [21]): Active; Activity (Echinochloa oryzicola [22]): Active; Activity (Oryza sativa): Toxic; Activity (Rotala indica [23]): Active; Activity (Cyperus difformis [24]): Active; Activity (Pontederia vaginalis [25]): Active; Activity (Eleocharis acicularis [26]): Active; Activity (Echinochloa oryzicola [27]): Active
CCCN(CC)C(=O)c1cn(C)nc1OCc1ccccc1 | Active | Active | Active | Active | Active | inactive | Active | Active | Active | Active | Active | Active | Active | Active | Active | Active | Active | Active | Active | Active | Activity (Rotala indica [21]): Active; Activity (Echinochloa oryzicola [22]): Active; Activity (Oryza sativa): Non-toxic; Activity (Rotala indica [23]): Active; Activity (Cyperus difformis [24]): Active; Activity (Pontederia vaginalis [25]): Active; Activity (Eleocharis acicularis [26]): Active; Activity (Echinochloa oryzicola [27]): Active
CCCN(CC)C(=O)c1cn(C)nc1OCc1cc(Br)cc(Br)c1 | Active | Active | Active | Active | Active | inactive | Active | Active | Active | inactive | inactive | Active | inactive | inactive | Active | Active | Active | Active | Active | inactive | Activity (Rotala indica [21]): Active; Activity (Echinochloa oryzicola [22]): inactive; Activity (Oryza sativa): Non-toxic; Activity (Rotala indica [23]): Active; Activity (Cyperus difformis [24]): inactive; Activity (Pontederia vaginalis [25]): Active; Activity (Eleocharis acicularis [26]): inactive; Activity (Echinochloa oryzicola [27]): Active

Source: ChEMBL document CHEMBL3046635, “Synthesis and Herbicidal Activity of New Pyrazole-4-carboxamide Derivatives” (J Pestic Sci, 2004)
